Assay results as given in PubChem BioAssay AID608 (Sanford-Burnham Center for Chemical Genomics, 2007).
pKd: −log10 of the molar value. Values joined by “and” are separate entries in the source; they are usually repeats but may differ in a detail not shown here. Identical values can stand only once. Active and inactive are the calls of the source. The rule behind the calls is not given here.

Molecular target: Peptidyl-prolyl cis-trans isomerase FKBP1A (Homo sapiens) (UniProt P62942)
Assay: FKBP12 binders, biophysical, NMR detection (AID 608)
Settings: NMR binding, purified FKBP12

Peptidyl-prolyl cis-trans isomerase FKBP1A (Homo sapiens), sequence (P62942 whole entry, looked up): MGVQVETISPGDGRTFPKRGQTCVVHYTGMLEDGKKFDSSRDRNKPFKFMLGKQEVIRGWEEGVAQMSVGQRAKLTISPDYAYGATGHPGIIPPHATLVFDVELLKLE

**Q.** CNC(=S)NCCN1CCOCC1 was tested. Which Kd did it give?
**A.** > 4 mM (inactive)

**Q.** Which Kd does the source give for Nc1ncccc1OCc1ccccc1 here?
**A.** > 4 mM (inactive)

**Q.** How did the Kd turn out when NCc1ccc(S(N)(=O)=O)cc1 was run?
**A.** > 4 mM (inactive)

**Q.** C=C1C(=O)O[C@@H]2C[C@@]3(C)CCC[C@H](C)C3=C[C@H]12 was tested. Which Kd did it give?
**A.** > 4 mM (inactive)

**Q.** Which Kd does the source give for Cc1ccc(SCc2nc(-c3cccnc3)no2)cc1 here?
**A.** > 4 mM (inactive)

**Q.** For CCn1c(=O)cc(N2CCC3(CC2)OCCO3)[nH]c1=O, which Kd is on record?
**A.** > 4 mM (inactive)

**Q.** CS(=O)(=O)N/N=C/c1cccs1 was tested. Which Kd did it give?
**A.** > 4 mM (inactive)

**Q.** For CN1CCC(NC(=O)c2cnccn2)CC1, which Kd is on record?
**A.** > 4 mM (inactive)

**Q.** For COc1ccc2c(c1)OC[C@@H](Cc1ccc(OC)c(OC)c1)[C@H]2O, which Kd is on record?
**A.** > 4 mM (inactive)

**Q.** For CCCS(=O)(=O)N1CCN(c2ccccn2)CC1, which Kd is on record?
**A.** > 4 mM (inactive)

**Q.** Which Kd does the source give for O=C(Nc1ccccc1)C(=O)NC1CC1 here?
**A.** > 4 mM (inactive)

**Q.** With CC(=O)c1cc(-c2nc3ccccc3n2C)n(C)c1 as the compound, how does the Kd read?
**A.** > 4 mM (inactive)

**Q.** Which Kd does the source give for CN1C(=O)CC(=O)N(C)c2ccccc21 here?
**A.** > 4 mM (inactive)

**Q.** For COc1ccc(-c2coc3cc(O)ccc3c2=O)cc1, which Kd is on record?
**A.** > 4 mM (inactive)

**Q.** O=C(NCc1ccncc1)c1cccc(F)c1 was tested. Which Kd did it give?
**A.** inactive

**Q.** Which Kd does the source give for Cc1ccc(-c2nc(-c3cccnc3)no2)c(C)c1 here?
**A.** > 4 mM (inactive)

**Q.** Which Kd does the source give for CC(=O)NC1=C(N(C)C)C(=O)c2ccccc2C1=O here?
**A.** > 4 mM (inactive)

**Q.** With O=C1c2ccccc2C(=O)N1CCc1ccccn1 as the compound, how does the Kd read?
**A.** > 4 mM (inactive)

**Q.** Which Kd does the source give for COc1cc(OC)c2c(c1Cl)OC1(C2=O)C(O)=CC(=O)CC1C (centres undefined) here?
**A.** > 4 mM (inactive)

**Q.** For CC1(C)C2CC(=O)[C@]3(C)C(CC[C@@]4(C)[C@H](c5ccoc5)OC(=O)C5OC543)[C@@]2(C)[C@@H](O)C[C@H]1O (some centres undefined), which Kd is on record?
**A.** > 4 mM (inactive)

**Q.** With Cc1ccc(-c2nnc3sc(-c4ccncc4)nn23)cc1 as the compound, how does the Kd read?
**A.** > 4 mM (inactive)

**Q.** O=[N+]([O-])c1ccc2c(c1)N([O-])C1(CCCCC1)[N+]2=O was tested. Which Kd did it give?
**A.** > 4 mM (inactive)

**Q.** For O=C(Cc1c(F)cccc1Cl)Nc1ccncc1, which Kd is on record?
**A.** > 4 mM (inactive)

**Q.** For COC(=O)[C@]1(C)CCC[C@]2(C)c3ccc(C(C)C)cc3C(=O)CC12 (some centres undefined), which Kd is on record?
**A.** > 4 mM (inactive)

**Q.** O=C(Oc1ccc(-c2nnco2)cc1)N1CCCCC1 was tested. Which Kd did it give?
**A.** > 4 mM (inactive)

**Q.** Which Kd does the source give for CC(C)n1c(-c2ccncc2)n[nH]c1=S here?
**A.** > 4 mM (inactive)

**Q.** For COC(=O)C1=C(C)N(Cc2ccco2)C(=O)C1, which Kd is on record?
**A.** > 4 mM (inactive)

**Q.** Which Kd does the source give for CCOC(=O)c1cnc2n(c1=O)CCS2 here?
**A.** > 4 mM (inactive)

**Q.** Which Kd does the source give for COc1cc2c(cc1O)CC1c3c(cc(O)c(OC)c3-2)CCN1C (centres undefined) here?
**A.** > 4 mM (inactive)

**Q.** Which Kd does the source give for Cc1nnc(SCC(=O)N2CCc3ccccc32)s1 here?
**A.** > 4 mM (inactive)

**Q.** Cc1nnsc1C(=O)Nc1ccccn1 was tested. Which Kd did it give?
**A.** > 4 mM (inactive)

**Q.** Which Kd does the source give for CCSc1nnc(-c2ccccc2N)c(=O)[nH]1 here?
**A.** > 4 mM (inactive)

**Q.** How did the Kd turn out when Nc1cc(C(=O)O)ccc1N1CCCCCC1 was run?
**A.** > 4 mM (inactive)

**Q.** Cn1cc(Cl)c(C(=O)Nc2ccncc2)n1 was tested. Which Kd did it give?
**A.** > 4 mM (inactive)

**Q.** CN1CCOc2cc(C(=O)O)ccc21 was tested. Which Kd did it give?
**A.** > 4 mM (inactive)

**Q.** How did the Kd turn out when Cc1ccc(C(=O)N2CCC(C(N)=O)CC2)cc1C was run?
**A.** > 4 mM (inactive)

**Q.** COc1ccc(NS(=O)(=O)N2CCOCC2)cc1 was tested. Which Kd did it give?
**A.** > 4 mM (inactive)

**Q.** For COc1ccc(C(C)=O)c(O)c1, which Kd is on record?
**A.** > 4 mM (inactive)

**Q.** How did the Kd turn out when O=c1ccn(Cc2ccccc2)c(=O)[nH]1 was run?
**A.** > 4 mM (inactive)

**Q.** For Cc1nn(-c2ccccc2)nc1CN, which Kd is on record?
**A.** > 4 mM (inactive)

**Q.** With CN(C(=O)NC1CCS(=O)(=O)C1)C1CCCCC1 (centres undefined) as the compound, how does the Kd read?
**A.** > 4 mM (inactive)

**Q.** Nc1ccc2sccc2c1 was tested. Which Kd did it give?
**A.** > 4 mM (inactive)

**Q.** Which Kd does the source give for O=S(=O)(Nc1ccc(Br)cc1)N1CCOCC1 here?
**A.** inactive

**Q.** With OCc1ccc2c(c1)OCCCO2 as the compound, how does the Kd read?
**A.** > 4 mM (inactive)

**Q.** Which Kd does the source give for O=c1n(-c2ccccc2)c(=O)n2n1CCCC2 here?
**A.** > 4 mM (inactive)

**Q.** For Cn1cnnc1SCCCNC(=O)Nc1ncccn1, which Kd is on record?
**A.** > 4 mM (inactive)

**Q.** With CCCS(=O)(=O)N1CCN(c2ccccc2F)CC1 as the compound, how does the Kd read?
**A.** > 4 mM (inactive)

**Q.** NS(=O)(=O)c1ccc(NC(=O)/C=C\C(=O)O)cc1 was tested. Which Kd did it give?
**A.** > 4 mM (inactive)

**Q.** Which Kd does the source give for COC1(C)CCC2OC2(C)CCC2C1CC2(C)C (centres undefined) here?
**A.** > 4 mM (inactive)

**Q.** With Cc1ccc(/C=C2/NC(=S)NC2=O)s1 as the compound, how does the Kd read?
**A.** > 4 mM (inactive)

**Q.** COC(=O)[C@@H]1CCCCN1C(=O)C(=O)c1cc(OC)c(OC)c(OC)c1 was tested. Which pKd did it give?
**A.** 5.52

**Q.** CC1(C)Cc2cccc(CO)c2O1 was tested. Which Kd did it give?
**A.** > 4 mM (inactive)

**Q.** CC(=O)OC1CCC23C(=O)OC45CCC(C6=CC(=O)OC6)C4(C)CCC2C5CCC3(O)C1 (centres undefined) was tested. Which Kd did it give?
**A.** > 4 mM (inactive)

**Q.** CN1C(=O)c2ccc(N=C3NC(=O)CS3)cc2C1=O was tested. Which Kd did it give?
**A.** > 4 mM (inactive)

**Q.** Which Kd does the source give for COc1ccc(C2NC(C(=O)O)CS2)cc1 (centres undefined) here?
**A.** > 4 mM (inactive)

**Q.** Cc1cc(C(=O)NC2=NCCS2)cs1 was tested. Which Kd did it give?
**A.** > 4 mM (inactive)

**Q.** With CNC(=S)Nc1cccc(C(=O)O)c1 as the compound, how does the Kd read?
**A.** > 4 mM (inactive)

**Q.** How did the Kd turn out when OCc1nc2ccccc2s1 was run?
**A.** > 4 mM (inactive)

**Q.** How did the Kd turn out when COC(=O)Cc1cc(=O)n(-c2ccccc2)[nH]1 was run?
**A.** > 4 mM (inactive)

**Q.** For O=C(NS(=O)(=O)c1ccccc1)c1ccccc1F, which Kd is on record?
**A.** > 4 mM (inactive)

**Q.** How did the Kd turn out when Cc1csc2nc3ccccc3c(=O)n12 was run?
**A.** > 4 mM (inactive)

**Q.** With CN1CCn2c1nc(N1CCCCC1)nc2=O as the compound, how does the Kd read?
**A.** > 4 mM (inactive)

**Q.** CCN1CCC2(CC1)CC1CC3C=CC1(CN2C(C)=O)O3 (centres undefined) was tested. Which Kd did it give?
**A.** > 4 mM (inactive)

**Q.** How did the Kd turn out when O=C1CCCN1C(=O)CN1CCOCC1 was run?
**A.** > 4 mM (inactive)

**Q.** Which Kd does the source give for CC(=O)O[C@H]1C[C@@H](OC(C)=O)C(C)(C)C2C[C@@H](OC(C)=O)[C@]3(C)C(CC[C@@]4(C)[C@H](c5ccoc5)C(=O)[C@H]5O[C@]543)[C@]21C (some centres undefined) here?
**A.** > 4 mM (inactive)

**Q.** With Nc1c(C(=O)O)sc2ncccc12 as the compound, how does the Kd read?
**A.** > 4 mM (inactive)

**Q.** How did the Kd turn out when CSc1nnc2ccc(-c3cccnc3)nn12 was run?
**A.** > 4 mM (inactive)

**Q.** For C[C@@H]1O[C@@H](O[C@H]2[C@H](Oc3cc(O)c4c(=O)cc(-c5ccc(O)cc5)oc4c3)O[C@H](CO)[C@@H](O)[C@@H]2O)[C@H](O)[C@H](O)[C@H]1O, which Kd is on record?
**A.** > 4 mM (inactive)

**Q.** Which Kd does the source give for O=C(NCc1cccc(Cl)c1)c1ccco1 here?
**A.** > 4 mM (inactive)

**Q.** How did the Kd turn out when COC(=O)NNc1ncnc(N)c1[N+](=O)[O-] was run?
**A.** > 4 mM (inactive)

**Q.** c1cncc(C(N2CCOCC2)N2CCOCC2)c1 was tested. Which Kd did it give?
**A.** > 4 mM (inactive)

**Q.** With C=C[C@H]1CN2CC[C@H]1C[C@@H]2[C@H](O)c1ccnc2ccccc12 as the compound, how does the Kd read?
**A.** > 4 mM (inactive)

**Q.** For CC12OC(=O)CC3C(C)(C)[C@H](O)C=C[C@]3(C)C1CC[C@]1(C)C2=CC(=O)O[C@H]1c1ccoc1 (some centres undefined), which Kd is on record?
**A.** > 4 mM (inactive)

**Q.** With CC1(C)C2CC(=O)[C@]3(C)C(CC[C@@]4(C)[C@H](c5ccoc5)OC(=O)[C@H]5O[C@]543)[C@@]2(C)C=C[C@@H]1O (some centres undefined) as the compound, how does the Kd read?
**A.** > 4 mM (inactive)

**Q.** With CC(=O)NCC1OCCc2ccccc21 (centres undefined) as the compound, how does the Kd read?
**A.** > 4 mM (inactive)

**Q.** Which Kd does the source give for Cc1cc(O)cc(=O)o1 here?
**A.** > 4 mM (inactive)

**Q.** With OCC1COc2ccccc2C1 (centres undefined) as the compound, how does the Kd read?
**A.** > 4 mM (inactive)

**Q.** Which Kd does the source give for O=C(O)c1ccc(-c2cccs2)s1 here?
**A.** > 4 mM (inactive)

**Q.** For c1cc2c(cc1[C@H]1OC[C@H]3[C@@H]1CO[C@H]3c1ccc3c(c1)OCO3)OCO2, which Kd is on record?
**A.** > 4 mM (inactive)

**Q.** How did the Kd turn out when Nc1nc2ccc(C(=O)O)cc2s1 was run?
**A.** > 4 mM (inactive)

**Q.** COc1ccc2c(c1OC)C(=O)N(c1ncn[nH]1)C2 was tested. Which Kd did it give?
**A.** > 4 mM (inactive)

**Q.** With Nc1nc(-c2nc3ccccc3[nH]2)cs1 as the compound, how does the pKd read?
**A.** 4.17 and 4.01

**Q.** For Nc1nnc(SCc2ccccc2Cl)s1, which Kd is on record?
**A.** > 4 mM (inactive)

**Q.** Which Kd does the source give for Nc1ncnc2c1ncn2CCOc1ccccc1 here?
**A.** > 4 mM (inactive)
